# Results as given in paper PMC11124057 (Molecules, 2024).
# Like-named read-outs stand apart in the source and are kept apart here.
# Legend:
# [1] = not given; remark: listed apart in the source
smiles,measurement,setting,value
"CC(C)Cc1ccc(C(C)C(=O)O)cc1 (racemic) [ibuprofen, (RS)-2-(4-(2-methylpropyl)phenyl)propanoic acid]",Mole fraction solubility,"DES betaine + TEG 1:2, x*DES 1.0, 25°C",0.3209±0.0024 mole fraction
same,Mole fraction solubility,"DES betaine + TEG 1:2, x*DES 1.0, 30°C",0.3830±0.0062 mole fraction
same,Mole fraction solubility,"DES betaine + TEG 1:2, x*DES 1.0, 35°C",0.4548±0.0069 mole fraction
same,Mole fraction solubility,"DES betaine + TEG 1:2, x*DES 1.0, 40°C",0.5444±0.0067 mole fraction
same,Mole fraction solubility,"DES choline chloride + TEG 1:2, x*DES 1.0, 25°C",0.3528±0.0029 mole fraction
same,Mole fraction solubility,"DES choline chloride + TEG 1:2, x*DES 1.0, 30°C",0.4366±0.0077 mole fraction
same,Mole fraction solubility,"DES choline chloride + TEG 1:2, x*DES 1.0, 35°C",0.5483±0.0115 mole fraction
same,Mole fraction solubility,"DES choline chloride + TEG 1:2, x*DES 1.0, 40°C",0.6784±0.0040 mole fraction
same,Mole fraction solubility,"aqueous DES betaine + TEG 1:2, x*DES 0.1, 25°C",0.0396±0.0003 mole fraction
same,Mole fraction solubility,"aqueous DES betaine + TEG 1:2, x*DES 0.1, 30°C",0.0475±0.0007 mole fraction
same,Mole fraction solubility,"aqueous DES betaine + TEG 1:2, x*DES 0.1, 35°C",0.0561±0.0003 mole fraction
same,Mole fraction solubility,"aqueous DES betaine + TEG 1:2, x*DES 0.1, 40°C",0.0688±0.0013 mole fraction
same,Mole fraction solubility,"aqueous DES betaine + TEG 1:2, x*DES 0.2, 25°C",0.0911±0.0020 mole fraction
same,Mole fraction solubility,"aqueous DES betaine + TEG 1:2, x*DES 0.2, 30°C",0.1077±0.0009 mole fraction
same,Mole fraction solubility,"aqueous DES betaine + TEG 1:2, x*DES 0.2, 35°C",0.1301±0.0019 mole fraction
same,Mole fraction solubility,"aqueous DES betaine + TEG 1:2, x*DES 0.2, 40°C",0.1547±0.0024 mole fraction
same,Mole fraction solubility,"aqueous DES betaine + TEG 1:2, x*DES 0.3, 25°C",0.1423±0.0035 mole fraction
same,Mole fraction solubility,"aqueous DES betaine + TEG 1:2, x*DES 0.3, 30°C",0.1670±0.0021 mole fraction
same,Mole fraction solubility,"aqueous DES betaine + TEG 1:2, x*DES 0.3, 35°C",0.2005±0.0018 mole fraction
same,Mole fraction solubility,"aqueous DES betaine + TEG 1:2, x*DES 0.3, 40°C",0.2400±0.0050 mole fraction
same,Mole fraction solubility,"aqueous DES betaine + TEG 1:2, x*DES 0.4, 25°C",0.1950±0.0030 mole fraction
same,Mole fraction solubility,"aqueous DES betaine + TEG 1:2, x*DES 0.4, 30°C",0.2288±0.0034 mole fraction
same,Mole fraction solubility,"aqueous DES betaine + TEG 1:2, x*DES 0.4, 35°C",0.2772±0.0045 mole fraction
same,Mole fraction solubility,"aqueous DES betaine + TEG 1:2, x*DES 0.4, 40°C",0.3302±0.0064 mole fraction
same,Mole fraction solubility,"aqueous DES betaine + TEG 1:2, x*DES 0.5, 25°C",0.2459±0.0052 mole fraction
same,Mole fraction solubility,"aqueous DES betaine + TEG 1:2, x*DES 0.5, 30°C",0.2949±0.0045 mole fraction
same,Mole fraction solubility,"aqueous DES betaine + TEG 1:2, x*DES 0.5, 35°C",0.3502±0.0073 mole fraction
same,Mole fraction solubility,"aqueous DES betaine + TEG 1:2, x*DES 0.5, 40°C",0.4150±0.0056 mole fraction
same,Mole fraction solubility,"aqueous DES betaine + TEG 1:2, x*DES 0.6, 25°C",0.2941±0.0043 mole fraction
same,Mole fraction solubility,"aqueous DES betaine + TEG 1:2, x*DES 0.6, 30°C",0.3535±0.0052 mole fraction
same,Mole fraction solubility,"aqueous DES betaine + TEG 1:2, x*DES 0.6, 35°C",0.4213±0.0098 mole fraction
same,Mole fraction solubility,"aqueous DES betaine + TEG 1:2, x*DES 0.6, 40°C",0.5066±0.0066 mole fraction
same,Mole fraction solubility,"aqueous DES betaine + TEG 1:2, x*DES 0.7, 25°C",0.3409±0.0049 mole fraction
same,Mole fraction solubility,"aqueous DES betaine + TEG 1:2, x*DES 0.7, 30°C",0.4057±0.0067 mole fraction
same,Mole fraction solubility,"aqueous DES betaine + TEG 1:2, x*DES 0.7, 35°C",0.4779±0.0128 mole fraction
same,Mole fraction solubility,"aqueous DES betaine + TEG 1:2, x*DES 0.7, 40°C",0.5883±0.0063 mole fraction
same,Mole fraction solubility,"aqueous DES betaine + TEG 1:2, x*DES 0.8, 25°C",0.3800±0.0058 mole fraction
same,Mole fraction solubility,"aqueous DES betaine + TEG 1:2, x*DES 0.8, 25°C, listed as IP",0.380 mole fraction
same,Mole fraction solubility,"aqueous DES betaine + TEG 1:2, x*DES 0.8, 30°C",0.4493±0.0062 mole fraction
same,Mole fraction solubility,"aqueous DES betaine + TEG 1:2, x*DES 0.8, 35°C",0.5335±0.0056 mole fraction
same,Mole fraction solubility,"aqueous DES betaine + TEG 1:2, x*DES 0.8, 40°C",0.6375±0.0137 mole fraction
same,Mole fraction solubility,"aqueous DES betaine + TEG 1:2, x*DES 0.9, 25°C",0.3582±0.0053 mole fraction
same,Mole fraction solubility,"aqueous DES betaine + TEG 1:2, x*DES 0.9, 30°C",0.4279±0.0034 mole fraction
same,Mole fraction solubility,"aqueous DES betaine + TEG 1:2, x*DES 0.9, 35°C",0.5040±0.0073 mole fraction
same,Mole fraction solubility,"aqueous DES betaine + TEG 1:2, x*DES 0.9, 40°C",0.6012±0.0090 mole fraction
same,Mole fraction solubility,"aqueous DES choline chloride + TEG 1:2, x*DES 0.1, 25°C",0.0211±0.0003 mole fraction
same,Mole fraction solubility,"aqueous DES choline chloride + TEG 1:2, x*DES 0.1, 30°C",0.0257±0.0001 mole fraction
same,Mole fraction solubility,"aqueous DES choline chloride + TEG 1:2, x*DES 0.1, 35°C",0.0318±0.0006 mole fraction
same,Mole fraction solubility,"aqueous DES choline chloride + TEG 1:2, x*DES 0.1, 40°C",0.0386±0.0006 mole fraction
same,Mole fraction solubility,"aqueous DES choline chloride + TEG 1:2, x*DES 0.2, 25°C",0.0641±0.0005 mole fraction
same,Mole fraction solubility,"aqueous DES choline chloride + TEG 1:2, x*DES 0.2, 30°C",0.0783±0.0007 mole fraction
same,Mole fraction solubility,"aqueous DES choline chloride + TEG 1:2, x*DES 0.2, 35°C",0.0973±0.0012 mole fraction
same,Mole fraction solubility,"aqueous DES choline chloride + TEG 1:2, x*DES 0.2, 40°C",0.1210±0.0019 mole fraction
same,Mole fraction solubility,"aqueous DES choline chloride + TEG 1:2, x*DES 0.3, 25°C",0.1227±0.0023 mole fraction
same,Mole fraction solubility,"aqueous DES choline chloride + TEG 1:2, x*DES 0.3, 30°C",0.1520±0.0019 mole fraction
same,Mole fraction solubility,"aqueous DES choline chloride + TEG 1:2, x*DES 0.3, 35°C",0.1876±0.0024 mole fraction
same,Mole fraction solubility,"aqueous DES choline chloride + TEG 1:2, x*DES 0.3, 40°C",0.2338±0.0048 mole fraction
same,Mole fraction solubility,"aqueous DES choline chloride + TEG 1:2, x*DES 0.4, 25°C",0.1961±0.0021 mole fraction
same,Mole fraction solubility,"aqueous DES choline chloride + TEG 1:2, x*DES 0.4, 30°C",0.2424±0.0032 mole fraction
same,Mole fraction solubility,"aqueous DES choline chloride + TEG 1:2, x*DES 0.4, 35°C",0.2953±0.0062 mole fraction
same,Mole fraction solubility,"aqueous DES choline chloride + TEG 1:2, x*DES 0.4, 40°C",0.3695±0.005 mole fraction
same,Mole fraction solubility,"aqueous DES choline chloride + TEG 1:2, x*DES 0.5, 25°C",0.2548±0.0063 mole fraction
same,Mole fraction solubility,"aqueous DES choline chloride + TEG 1:2, x*DES 0.5, 30°C",0.3205±0.0083 mole fraction
same,Mole fraction solubility,"aqueous DES choline chloride + TEG 1:2, x*DES 0.5, 35°C",0.3919±0.0029 mole fraction
same,Mole fraction solubility,"aqueous DES choline chloride + TEG 1:2, x*DES 0.5, 40°C",0.4807±0.0064 mole fraction
same,Mole fraction solubility,"aqueous DES choline chloride + TEG 1:2, x*DES 0.6, 25°C",0.2992±0.0052 mole fraction
same,Mole fraction solubility,"aqueous DES choline chloride + TEG 1:2, x*DES 0.6, 30°C",0.3723±0.0052 mole fraction
same,Mole fraction solubility,"aqueous DES choline chloride + TEG 1:2, x*DES 0.6, 35°C",0.4667±0.0108 mole fraction
same,Mole fraction solubility,"aqueous DES choline chloride + TEG 1:2, x*DES 0.6, 40°C",0.5790±0.0052 mole fraction
same,Mole fraction solubility,"aqueous DES choline chloride + TEG 1:2, x*DES 0.7, 25°C",0.3351±0.0045 mole fraction
same,Mole fraction solubility,"aqueous DES choline chloride + TEG 1:2, x*DES 0.7, 30°C",0.4232±0.0081 mole fraction
same,Mole fraction solubility,"aqueous DES choline chloride + TEG 1:2, x*DES 0.7, 35°C",0.5264±0.0138 mole fraction
same,Mole fraction solubility,"aqueous DES choline chloride + TEG 1:2, x*DES 0.7, 40°C",0.6531±0.0080 mole fraction
same,Mole fraction solubility,"aqueous DES choline chloride + TEG 1:2, x*DES 0.8, 25°C",0.3673±0.0062 mole fraction
same,Mole fraction solubility,"aqueous DES choline chloride + TEG 1:2, x*DES 0.8, 30°C",0.4557±0.0051 mole fraction
same,Mole fraction solubility,"aqueous DES choline chloride + TEG 1:2, x*DES 0.8, 35°C",0.5712±0.0136 mole fraction
same,Mole fraction solubility,"aqueous DES choline chloride + TEG 1:2, x*DES 0.8, 40°C",0.7095±0.0082 mole fraction
same,Mole fraction solubility,"aqueous DES choline chloride + TEG 1:2, x*DES 0.9, 25°C",0.3754±0.0036 mole fraction
same,Mole fraction solubility,"aqueous DES choline chloride + TEG 1:2, x*DES 0.9, 25°C, listed as IP",0.375 mole fraction
same,Mole fraction solubility,"aqueous DES choline chloride + TEG 1:2, x*DES 0.9, 30°C",0.4619±0.0105 mole fraction
same,Mole fraction solubility,"aqueous DES choline chloride + TEG 1:2, x*DES 0.9, 35°C",0.5742±0.0073 mole fraction
same,Mole fraction solubility,"aqueous DES choline chloride + TEG 1:2, x*DES 0.9, 40°C",0.7138±0.0065 mole fraction
same,Mole fraction solubility,"[1]; neat DES betaine-DEG 1:1, 25°C",0.223±0.0026 mole fraction
same,Mole fraction solubility,"[1]; neat DES betaine-GLY 1:2, 25°C, listed as IP",0.297 mole fraction
same,Mole fraction solubility,"[1]; neat DES betaine-P2D 1:1, 25°C",0.1561±0.0027 mole fraction
same,Mole fraction solubility,"[1]; neat DES betaine-P2D 1:2, 25°C",0.1919±0.0023 mole fraction
same,Mole fraction solubility,"[1]; neat DES betaine-P2D 1:4, 25°C",0.2062±0.0014 mole fraction
same,Mole fraction solubility,"[1]; neat DES betaine-TEG 1:2, 25°C, listed as IP",0.321 mole fraction
same,Mole fraction solubility,"[1]; neat DES choline chloride-B3D 1:1, 25°C",0.1584±0.0030 mole fraction
same,Mole fraction solubility,"[1]; neat DES choline chloride-B3D 1:4, 25°C",0.1899±0.0025 mole fraction
same,Mole fraction solubility,"[1]; neat DES choline chloride-ETG 1:1, 25°C",0.2167±0.0034 mole fraction
same,Mole fraction solubility,"[1]; neat DES choline chloride-ETG 1:2, 25°C",0.3072±0.0025 mole fraction
same,Mole fraction solubility,"[1]; neat DES choline chloride-ETG 1:4, 25°C",0.2905±0.0061 mole fraction
same,Mole fraction solubility,"[1]; neat DES choline chloride-GLY 1:1, 25°C",0.2793±0.0019 mole fraction
same,Mole fraction solubility,"[1]; neat DES choline chloride-GLY 1:2, 25°C",0.3495±0.0031 mole fraction
same,Mole fraction solubility,"[1]; neat DES choline chloride-GLY 1:2, 25°C, listed as IP",0.349 mole fraction
same,Mole fraction solubility,"[1]; neat DES choline chloride-GLY 1:4, 25°C",0.3187±0.0038 mole fraction
same,Mole fraction solubility,"[1]; neat DES choline chloride-P2D 1:1, 25°C",0.1611±0.0024 mole fraction
same,Mole fraction solubility,"[1]; neat DES choline chloride-P2D 1:2, 25°C",0.2068±0.0046 mole fraction
same,Mole fraction solubility,"[1]; neat DES choline chloride-TEG 1:2, 25°C, listed as IP",0.353 mole fraction
